# Measurements as given in patent US20260327260A1, “PHOSPHONOALANINE OLIGOPEPTIDES AND METHODS OF MAKING AND USE THEREOF” (priority 2023, published 2026).
# What was measured:
# [1] = system: 1-deoxy-D-xylulose 5-phosphate reductoisomerase; settings: role: inhibitor; cited from earlier work
# malaria = settings: cited from earlier work
# threonine synthase = settings: role: inhibitor; cited from earlier work
# bacteria = settings: cited from earlier work
# PnaA [2] = assay: PnaA kinetics: conversion of PnPy and L-Asp to L-PnAla and OAA, coupled to MDH/NADH oxidation (340 nm); format: biochemical, Streptomyces sp. NRRL S-515; settings: role: substrate (PnPy, 0.0025-0.015 mM); second substrate L-Asp 5 mM; pH 7.5, 30° C; apparent steady state
# Experimental: (§1) Next, kinetic analyses were performed to derive insight on the substrate specificity and reaction selectivity of PnaA transamination. Apparent steady state parameters were calculated in spectrophotometric assays by coupling the formation of OAA, PnPy, and 2KG with NADH oxidation in the presence of malate dehydrogenase (MDH), PnPy reductase (VlpB), and 3-phosphoglycerate dehydrogenase (SerA), respectively (FIG. 18A-FIG. 24B). […] The micromolar Km value observed for PnaA with PnPy is similar to that of other PepM coupling enzymes such as PnPy decarboxylase [B27, B30].
# (§2) Kinetic analyses. All reactions (400 μL) were performed in 50 mM HEPES, 150 mM NaCl, pH 7.5, 30° C. using an Agilent Cary 300 spectrophotometer. The instrument was first blanked using the reaction containing the enzymes and the fixed substrate (without NADH). Initial rates were calculated from continual changes in absorbance (340 nm) before and after substrate addition. Data were analyzed using SigmaPlot 15.
# Conversion of PnPy and L-Asp to L-PnAla and OAA by His6-SUMO-PnaA. Each reaction contained 0.5 μM PnaA, 5 μM MDH, 200 uM NADH, 5 mM L-Asp, and were initiated by the addition of 0.0025, 0.00375, 0.005, 0.0065, 0.008, 0.01, or 0.015 mM PnPy. PnaA was pre-incubated with PLP (1:5) on ice for 10 min prior to use.
# PnaA [3] = assay: PnaA reverse transamination reaction, 31P NMR/LC-MS (PnAla to PnPy); format: biochemical, Streptomyces sp. NRRL S-515; settings: role: product, 2 hours
# Experimental: Biochemical assays of His6-SUMO-PnaA. Typical reaction mixtures (300 μL) contained 20 μM His6-SUMO-PnaA, 1.5 mM L-PnAla, 3 mM oxaloacetate, and 100 μM pyridoxal 5′-phosphate (PLP) in 50 mM HEPES, 150 mM NaCl, pH 7.5. Reactions were incubated at 30° C. for 2 hours, heat inactivated at 65° C. for 10 minutes, and then analyzed by NMR and LC-MS as described above.
# Reactions in time course experiments (150 μL) contained 10 μM His6-SUMO-PnaA, 1.5 mM L-PnAla, 10 mM oxaloacetate (OAA), and 100 μM pyridoxal 5′-phosphate (PLP) in 50 mM HEPES, 150 mM NaCl, pH7.5. Samples were where heat inactivated 1, 5, 10, 30, 60, 120, and 240 min after initiation and then analyzed by ^31P NMR as described above.
# Reactions examining the effect of keto-acid acceptor concentrations were the same as above, except they contained 1.5, 3, 5, or 10 mM of (OAA). Samples were heat inactivated after 120 min and then analyzed by ^31P NMR as described above.
# MurA = settings: role: inhibitor; mimics phosphoenolpyruvate; cited from earlier work
# [4] = system: metabotropic glutamate receptors; settings: cerebral tissues; cited from earlier work
# PnaA [5] = assay: PnaA kinetics: conversion of L-PnAla and OAA to PnPy and L-Asp, coupled to PnPy reductase VlpB/NADH oxidation; format: biochemical, Streptomyces sp. NRRL S-515; settings: second substrate OAA 5 mM
# Experimental: as §1, §2
# Conversion of L-PnAla and OAA to PnPy and L-Asp by His6-SUMO-PnaA. Each reaction contained 1 μM PnaA, 5 μM VlpB, 200 uM NADH, 5 mM OAA, the 340 nm absorbance change was recorded for 1 min to measure the background assumption of OAA by VlpB. Then the reactions were initiated by the addition of 0.1, 0.2, 0.35, 0.5, 0.65, 0.8, or 1 mM PnAla. PnaA was pre-incubated with PLP (1:5) on ice for 10 min prior to use.
# PnaC = PnaC dipeptide ligation reactions (LC-HRMS); format: biochemical, Streptomyces sp. NRRL S-515; settings: role: substrate
# Experimental: (§3) These hypotheses were tested by overproducing and purifying recombinant PnaB and PnaC from E. coli for use in a series of biochemical assays. PnAla, Ala, and ATP were incubated with PnaB or PnaC and the reactions were monitored by ^31P NMR and LC-HRMS. […] To determine if either enzyme could convert Ala-Val into phosphonoalamide A, protein was removed from the PnaC reaction by ultrafiltration and Ala, ATP, and fresh PnaC or PnaB was added to the filtrate. LC-HRMS identified PnAla-Ala-Val as a product following the addition of PnaB, but not PnaC (FIG. 25A-FIG. 25C).
# The ATP-Grasp ligases PnaC and PnaB underlie diversification of L-PnAla-containing oligopeptides. To understand the biochemical nature of this potential phosphonopeptide diversity, the substrate specificity of the dipeptide ligase PnaC was first delineated. Microscale biochemical reactions containing purified PnaC were performed with every combination of the 20 canonical amino acids and L-allo-threonine (231 total pairs of substrates). Reactions were analyzed by LC-HRMS to reveal putative dipeptides from 146 out of the 231 combinations. To distinguish residues in reactions containing isomeric pairs (e.g., Ile and Leu, Thr and allo-Thr) new reactions were prepared using ^15N-Ile and 4-^13C-2,3-D2-Thr as substrates. LC-HRMS/MS fragmentation analysis was then performed to verify all products and determine structures.
# Biochemical assays of His6-PnaC. Typical reaction mixtures ([…]) contained 10 μM His6-PnaC, […], 3 mM of each L-amino acid, and 5 mM ATP in 50 mM Tris-HCl, 100 mM NaCl, 2 mM MgCl2 pH 9. Reactions were incubated at 30° C. for 16 hours, heat inactivated at 65° C. for 10 minutes, and then analyzed by LC-MS as described above.
# Analysis of PnaC and PnaB substrate specificity reactions. An extracted ion chromatogram (EIC) was obtained for each potential product m z. The shape and retention time of each EIC were used to evaluate the quality and plausibility of true signals, and samples with low-confidence EICs were re-analyzed individually, to address the challenges of ion suppression (FIG. 31A-FIG. 31C) and background noise (FIG. 32A-FIG. 32D).
# PnaA with PnaD = assay: PnaD-PnaA coupled forward reaction, 31P NMR (PEP to PnAla); format: biochemical, Streptomyces sp. NRRL S-515; settings: role: product, PEP 1.5 mM, 2 hours
# Experimental: Biochemical assays of His6-SUMO-PnaA with His6-PnaD. Typical reaction mixtures (300 μL) contained 20 μM His6-PnaD, 20 μM His6-SUMO-PnaA, 1.5 mM PEP, 3 mM L-Asp, 100 μM pyridoxal 5′-phosphate (PLP), and 2 mM MgCl2 in 50 mM HEPES, 150 mM NaCl, pH 7.5. Reactions were incubated at 30° C. for 2 hours, heat inactivated at 65° C. for 10 minutes, and then analyzed by ^31P NMR and LC-MS as described above.
# Reactions in timecourse experiments ([…]) contained 10 μM His6-PnaD, 10 μM His6-SUMO-PnaA, 1.5 mM PEP, 10 mM L-Asp, 100 μM pyridoxal 5′-phosphate (PLP), and 2 mM MgCl2 in 50 mM HEPES, 150 mM NaCl, pH 7.5. Samples were where heat inactivated 1, 5, 10, 30, 60, 120, and 240 min after initiation and then analyzed by ^31P NMR as described above.
# Reactions examining the effect of amino donor concentrations were the same as above, except they contained 1.5, 3, 5, or 10 mM of (L-Asp). Samples were heat inactivated after 120 min and then analyzed by ^31P NMR as described above.
# [6] = system: phosphoserine phosphatases; settings: role: inhibitor; cited from earlier work
# PnaB = PnaB ligation reactions (31P NMR, LC-HRMS); format: biochemical, Streptomyces sp. NRRL S-515; settings: role: substrate
# Experimental: as §3
# Biochemical assays of His6-PnaB. Typical reaction mixtures ([…]) contained 10 μM His6-PnaB, 3 mM ATP, 1 mM L-PnAla, 3 mM chemically synthesized L-Ala-L-Val, L-Val-L-Val, L-Ala-L-Ile, or L-Thr-L-Val in 50 mM Tris-HCl, 100 mM NaCl, 2 mM MgCl2 pH 9. Reactions were incubated at 30° C. for 2 hours, heat inactivated at 65° C. for 10 minutes, and then analyzed by NMR and LC-MS as described above.
# PnaA [7] = assay: PnaA kinetics: conversion of L-Glu and OAA to 2-KG and L-Asp, coupled to SerA/NADH oxidation; format: biochemical, Streptomyces sp. NRRL S-515; settings: role: substrate (L-Glu, 0.5-15 mM); second substrate OAA 5 mM; pH 7.5, 30° C
# Experimental: In addition to the transamination of Pn substrates, PnaA was also capable of catalyzing the reversible conversion of Glu and OAA into 2KG and Asp.
# as §2
# Conversion of L-Glu and OAA to 2-KG and L-Asp by His6-SUMO-PnaA. Each reaction contained 1 μM PnaA, 5 μM SerA, 200 uM NADH, 5 mM OAA, the 340 nm absorbance change was recorded for 1 min to measure the background assumption of OAA by SerA, and were initiated by the addition of 0.5, 1, 1.5, 2, 3, 4, 6, 10, or 15 mM L-Glu. PnaA was pre-incubated with PLP (1:5) on ice for 10 min prior to use.
# [8] = role: substrate (PnAla), compared with PnPy
# [9] = role: substrate (PnAla, 0.1-1 mM), pH 7.5, 30° C, reverse reaction
smiles,measurement,setting,value
O=CN(O)CCCP(=O)(O)O [fosmidomycin],inhibition of 1-deoxy-D-xylulose 5-phosphate reductoisomerase,[1],inhibiting 1-deoxy-D-xylulose 5-phosphate reductoisomerase
same,results against malaria in human trials,malaria,promising results against malaria in human trials
N[C@@H](/C=C\CP(=O)(O)O)C(=O)O [(Z)-L-2-amino-5-phosphono-3-pentenoic acid],threonine synthase inhibition,threonine synthase,threonine synthase inhibitor
CC(C)[C@H](NC(=O)[C@H](C)NC(=O)[C@@H](N)CP(=O)(O)O)C(=O)O [phosphonoalamide A],spectrum of antimicrobial activity,bacteria,differing spectrums of antimicrobial activity
"O=C(O)C(=O)CP(=O)(O)O [PnPy, 3-phosphonopyruvate]",Km,PnaA [2],4.8 µM
same,kcat,PnaA [2],2.3 s⁻¹
same,yield of PnPy from the reverse reaction,"PnaA [3]; L-PnAla 1.5 mM, OAA 3 mM, PLP 100 μM, 30° C",48%
same,PnPy accumulation at apparent equilibrium,"PnaA [3]; PnAla 1.5 mM, OAA varied 1.5, 3, 5 or 10 mM",≥ 70%
C[C@@H]1O[C@@H]1P(=O)(O)O [fosfomycin],MurA inhibition,MurA,covalently inhibit MurA
"C[C@H](N)C(=O)N[C@@H](C)C(=O)N[C@@H](CP(=O)(O)O)C(=O)O [phosphonoalamide F, reference compound]",spectrum of antimicrobial activity,bacteria,differing spectrums of antimicrobial activity
"NC(CP(=O)(O)O)C(=O)O (stereo not drawn) [PnAla, 2-amino-3-phosphonopropionic acid]",metabotropic glutamate receptor antagonism,[4],selective antagonist of metabotropic glutamate receptors
same,"higher Michaelis constant (fold, reverse reaction compared with PnPy reaction)",PnaA [5]; [8],100 fold
same,"lower catalytic efficiency (fold, reverse reaction compared with PnPy reaction)",PnaA [5]; [8],100 fold
same,Km,PnaA [5]; [9],327 µM
same,kcat,PnaA [5]; [9],2.4 s⁻¹
same,modification of PnAla with Ala,"PnaC; with Ala and ATP, up to 16 hrs",PnAla remained unmodified
same,conversion of PnAla with Ala-Val,PnaC; with chemically synthesized Ala-Val and ATP,PnAla remained unmodified by PnaC
same,PnAla accumulation at apparent equilibrium,"PnaA with PnaD; Asp varied 1.5, 3, 5 or 10 mM",≥ 70%
same,yield of PnAla from the PepM-coupled forward reaction,"PnaA with PnaD; L-Asp 3 mM, PLP 100 μM, 30° C",50%
same,phosphoserine phosphatase inhibition,[6],inhibitor of phosphoserine phosphatases
same,conversion of PnAla into phosphonoalamide A,"PnaB; L-PnAla 1 mM, with Ala-Val 3 mM and ATP 3 mM, pH 9, 30° C",complete conversion of PnAla into phosphonoalamide A by PnaB
same,modification of PnAla with Ala,"PnaB; with Ala and ATP, up to 16 hrs",PnAla remained unmodified
N[C@@H](CCC(=O)O)C(=O)O [Glu],Km,PnaA [7],7500 µM
same,kcat,PnaA [7],0.31 s⁻¹
